Columns and labels:
human P2X2/3 receptors = target: T1, human P2X2/3 receptors (Homo sapiens, UniProt P56373+Q9UBL9); experiment: Intracellular calcium measurement, antagonist activity at human P2X2/3 receptors (hP2X23 1321N1), Fluo8; format: cell-based; conditions: column 4); 1321N1 cells, human P2X2/3, Fluo8, agonist ATP at EC50; read-out: 4) hP2X2/3 IC50 [nM] (1321N1)
T1 construct: expressed in transfected cells; host or cells: human astrocytoma 1321N1 (1312N1 [sic])
T1 sequence (P56373 1-397): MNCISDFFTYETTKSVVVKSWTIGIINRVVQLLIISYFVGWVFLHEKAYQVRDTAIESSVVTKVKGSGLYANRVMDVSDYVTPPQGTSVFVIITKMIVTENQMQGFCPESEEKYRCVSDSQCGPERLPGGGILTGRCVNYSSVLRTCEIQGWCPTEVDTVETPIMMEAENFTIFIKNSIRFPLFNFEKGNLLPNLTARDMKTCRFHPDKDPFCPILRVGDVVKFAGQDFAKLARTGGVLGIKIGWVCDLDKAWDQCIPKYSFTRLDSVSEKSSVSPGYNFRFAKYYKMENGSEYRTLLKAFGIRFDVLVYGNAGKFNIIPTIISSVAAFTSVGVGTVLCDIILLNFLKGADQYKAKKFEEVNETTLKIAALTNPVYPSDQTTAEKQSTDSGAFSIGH
T1 sequence (Q9UBL9 1-471): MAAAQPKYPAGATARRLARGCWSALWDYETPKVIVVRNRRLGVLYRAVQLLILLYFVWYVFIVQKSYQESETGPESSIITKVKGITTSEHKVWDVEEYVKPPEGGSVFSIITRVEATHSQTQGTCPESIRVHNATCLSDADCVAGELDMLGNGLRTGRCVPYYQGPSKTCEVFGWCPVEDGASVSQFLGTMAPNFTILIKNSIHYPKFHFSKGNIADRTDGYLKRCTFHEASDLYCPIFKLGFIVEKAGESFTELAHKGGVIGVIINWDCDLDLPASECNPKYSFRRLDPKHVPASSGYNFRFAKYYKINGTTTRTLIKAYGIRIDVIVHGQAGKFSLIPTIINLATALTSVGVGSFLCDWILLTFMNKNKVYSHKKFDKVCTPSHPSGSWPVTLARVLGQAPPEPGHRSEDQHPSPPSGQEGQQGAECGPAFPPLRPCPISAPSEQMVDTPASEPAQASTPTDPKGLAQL
Description: 3) And 4) Intracellular Calcium Measurement to Compare Antagonist Activity at Human P2X3 Receptors (hP2X3 1321N1) and at Human P2X2/3 Receptors (hP2X23 1321N1)
The comparison of antagonistic activity at the P2X3 versus the P2X2/3 receptor of the compounds of the invention were performed by use of recombinant cell lines. These cell lines derived originally from the human astrocytoma cell line […] (Macintyre E H, Pontén J, Vatter A E. Acta Pathol Microbiol Scand A. 1972; 80(2):267-83). The cell lines are stably transfected with the human P2X3 receptor forming homotrimeric P2X3 receptors or are co-transfected with P2X2 and P2X3 forming heterotrimeric P2X2/3 receptors. Stimulation of the receptors with the agonist ATP leads to a conformational change of the receptors and influx of extracellular calcium ions through the open ion channel. The cytoplasmatic calcium transient is detected via the calcium sensitive dye Fluo8. The strength of Fluo8 fluorescence signal corresponds to the level of receptor activation. An inhibitor would decrease the signal depending on its potency and concentration. Fluorescence was measured by use of a suitable fluorescence reader.
On the day before the assay, the cells were plated in culture medium (DMEM high glucose, 10% FCS, 1% MEM non-essential amino acids, 4 mM Glutamax) in 384-well poly-D-lysine coated microtiter plates and kept in a cell incubator (96% humidity, 5% v/v CO2, 37° C.). On the day of the assay medium was exchanged by Fluo8 containing buffer and incubated for 60 minutes. Test compounds were added at various concentrations and plates were incubated for 10 minutes. In the fluorescence reader a 3 seconds baseline measurement was performed and the agonist ATP was applied at EC50 concentration of the respective receptor during constant fluorescence measurement for 120 seconds.

human P2X3 receptor = target: T2, human P2X3 receptor (Homo sapiens, UniProt P56373); experiment: Intracellular calcium measurement to assess antagonist activity at human P2X3 receptors (hP2X3 CHO), photina luminescence; format: cell-based; parameters: expressed in transfected cells; host or cells: Chinese hamster ovary (CHO) cells; conditions: column 2), CHO cells, agonist α,β-methylene-ATP at EC50
T2 sequence (P56373 1-397): T1 sequence (P56373 1-397)
Description: 2) Intracellular Calcium Measurement to Assess Antagonist Activity at Human P2X3 Receptors (hP2X3 CHO)
The determination of antagonistic activity at the P2X3 receptor of the compounds of the invention was performed by use of a recombinant cell line. This cell line derives originally from the Chinese hamster ovary (CHO) cell line (Tjio J. H.; Puck T. T., 1958, J. Exp. Med. 108: 259-271). The cell line is stably transfected with the human P2X3 receptor and a calcium-sensitive photoprotein, mitochondrial photina, which, after reconstitution with the cofactor coelenterazine, emits light in dependence of calcium binding [Bovolenta S, Foti M, Lohmer S, Corazza S., J Biomol Screen. 2007 August; 12(5):694-704]. The strength of the photina luminescence signal corresponds to the level of receptor activation upon agonist binding. An inhibitor would decrease the signal depending on its potency and concentration. Bioluminescence was detected using a suitable luminometer [Milligan G, Marshall F, Rees S, Trends in Pharmacological Sciences 17,235-237 (1996)].
On the day before the assay, the cells were plated out in culture medium (DMEM/F12 (PAN, P04-41451), 10% FCS) in 384-well microtiter plates and kept in a cell incubator (96% humidity, 5% v/v CO2, […]). On the day of the assay medium was replaced by 2 mM Ca-tyrode buffer containing 5 μg/ml coelenterazine. Plates were incubated for 3 hours at 37° C. (96% humidity, 5% v/v CO2). […] The resulting light signal was measured immediately in the luminometer.

IC50 (human P2X2/3 receptors) [nM] | IC50 (human P2X3 receptor) [nM] | SMILES
1350 | 24 | Cc1ccc(-c2cc3n(CC(=O)Nc4ccc(F)cn4)c4c(c(=O)n3n2)CN([C@H]2CCOC2)C4=O)nc1 [Example 161, N-(5-fluoropyridin-2-yl)-2-{2-(5-methylpyridin-2-yl)-5,8-dioxo-6-[(3S)-oxolan-3-yl]-5,6,7,8-tetrahydro-4H-pyrazolo[1,5-a]pyrrolo[3,4-d]pyrimidin-4-yl}acetamide]
1460 | 13 | CC(C)N1Cc2c(n(CC(=O)Nc3ccc(F)cn3)c3cc(-c4ccc(F)cn4)nn3c2=O)C1=O [Example 165]
345 | 5 | CCc1cc2n(CC(=O)Nc3ccc(F)cn3)c3c(c(=O)n2n1)CN(C(C)(C)COCc1ccccc1)C3=O [Example 120, 2-{6-[1-(benzyloxy)-2-methylpropan-2-yl]-2-ethyl-5,8-dioxo-5,6,7,8-tetrahydro-4H-pyrazolo[1,5-a]pyrrolo[3,4-d]pyrimidin-4-yl}-N-(5-fluoropyridin-2-yl)acetamide]
1160 | 51 | CCc1cc2n(CC(=O)Nc3ccc(F)cn3)c3c(c(=O)n2n1)CN(C(C)COCc1ccccc1)C3=O (racemic) [Example 121, 2-{6-[(±)-1-(benzyloxy)propan-2-yl]-2-ethyl-5,8-dioxo-5,6,7,8-tetrahydro-4H-pyrazolo[1,5-a]pyrrolo[3,4-d]pyrimidin-4-yl}-N-(5-fluoropyridin-2-yl)acetamide]
3700 | 20 | COC[C@H](C)N1Cc2c(n(CC(=O)Nc3ccc(F)cn3)c3cc(-c4ncccc4C)nn3c2=O)C1=O [Example 164]
1200 | 6 | COC[C@H](C)N1Cc2c(n(CC(=O)Nc3ccc(F)cn3)c3cc(-c4ccc(C)cn4)nn3c2=O)C1=O [Example 162]
3870 | 37 | CC(C)N1Cc2c(n(CC(=O)Nc3ccc(F)cn3)c3cc(C(=O)Nc4ccccn4)nn3c2=O)C1=O [Example 201]
 | 63 | COC[C@H](C)N1Cc2c(n(CC(=O)Nc3ccc(F)cn3)c3cc(C(=O)Nc4ccon4)nn3c2=O)C1=O [Example 215]
 | 415 | CCc1cc2n(CC(=O)Nc3ccc(F)cn3)c3c(c(=O)n2n1)CN(CC(=O)N1CCOCC1)C3=O [Example 291, 2-{2-ethyl-6-[2-(morpholin-4-yl)-2-oxoethyl]-5,8-dioxo-5,6,7,8-tetrahydro-4H-pyrazolo[1,5-a]pyrrolo[3,4-d]pyrimidin-4-yl}-N-(5-fluoropyridin-2-yl)acetamide]
 | 18 | O=C(Cn1c2c(c(=O)n3nc(-c4ccncc4)cc13)CN(CCN1CCOCC1)C2=O)Nc1ccc(F)cn1 [Example 132]
 | 14 | O=C(Cn1c2c(c(=O)n3nc(-c4ccncc4)cc13)CN(Cc1cccnc1)C2=O)Nc1ccc(F)cn1 [Example 131]
 | 1150 | CCc1cc2n(CC(=O)Nc3ccc(F)cn3)c3c(c(=O)n2n1)CN(C1CCN(C2CCC2)C1)C3=O (stereo not shown) [Example 254]
 | 180 | O=C(Cn1c2c(c(=O)n3nc(C(=O)Nc4ccccc4F)cc13)CN(C1CCOCC1)C2=O)Nc1ccc(F)cn1 [Example 219]
 | 120 | CNc1cc2n(CC(=O)Nc3ccc(F)cn3)c3c(c(=O)n2n1)CN([C@@H](C)COC)C3=O [Example 179]
 | 230 | CCc1cc2n(CC(=O)Nc3ccc(F)cn3)c3c(c(=O)n2n1)CN(C1CNC1)C3=O [Example 243]
 | 225 | N#Cc1cc2n(CC(=O)Nc3ccc(F)cn3)c3c(c(=O)n2n1)CN(CCN1CCOCC1)C3=O [Example 147]
 | 398 | Cc1cccnc1-c1cc2n(CC(=O)Nc3ccc(F)cn3)c3c(c(=O)n2n1)CN(C(C)C)C3=O [Example 163]

IC50 (human P2X2/3 receptors) [nM] | IC50 (human P2X3 receptor) [nM] | SMILES
 | 30 | COC[C@H](C)N1Cc2c(n(CC(=O)Nc3ccc(F)cn3)c3cc(C(=O)Nc4ccccc4F)nn3c2=O)C1=O [Example 221]
 | 5 | Cc1cnc(-c2cc3n(CC(=O)Nc4ccc(F)cn4)c4c(c(=O)n3n2)CN(C(C)C)C4=O)c(C)c1 [Example 166, 2-[2-(3,5-dimethylpyridin-2-yl)-5,8-dioxo-6-(propan-2-yl)-5,6,7,8-tetrahydro-4H-pyrazolo[1,5-a]pyrrolo[3,4-d]pyrimidin-4-yl]-N-(5-fluoropyridin-2-yl)acetamide]
 | 36 | Cc1ccccc1NC(=O)c1cc2n(CC(=O)Nc3ccc(F)cn3)c3c(c(=O)n2n1)CN(C(C)C)C3=O [Example 204]
 | 26 | CC(C)N1Cc2c(n(CC(=O)Nc3ccc(F)cn3)c3cc(C(=O)Nc4ccon4)nn3c2=O)C1=O [Example 211]
 | 59 | CNc1cc2n(CC(=O)Nc3ccc(F)cn3)c3c(c(=O)n2n1)CN(C(C)C)C3=O [Example 174]
 | 22 | CC(C)N1Cc2c(n(CC(=O)Nc3ccc(F)cn3)c3cc(C(=O)Nc4cccnn4)nn3c2=O)C1=O [Example 212]
 | 57 | CCc1cc2n(CC(=O)Nc3ccc(F)cn3)c3c(c(=O)n2n1)CN(CC)C3=O [Example 126]
 | 131 | CCc1cc2n(CC(=O)Nc3ccc(F)cn3)c3c(c(=O)n2n1)CN(C1CCCOC1)C3=O (stereo not shown) [Example 118]
 | 113 | CCc1cc2n(CC(=O)Nc3ccc(F)cn3)c3c(c(=O)n2n1)CN(CC1CCC1)C3=O [Example 113]
 | 115 | CC(C)N1Cc2c(n(CC(=O)Nc3ccc(F)cn3)c3cc(C4CN(C(=O)OC(C)(C)C)C4)nn3c2=O)C1=O [Example 230, tert-butyl 3-[4-{2-[(5-fluoropyridin-2-yl)amino]-2-oxoethyl}-5,8-dioxo-6-(propan-2-yl)-5,6,7,8-tetrahydro-4H-pyrazolo[1,5-a]pyrrolo[3,4-d]pyrimidin-2-yl]azetidine-1-carboxylate]
 | 70 | COC[C@H](C)N1Cc2c(n(CC(=O)Nc3ccc(F)cn3)c3cc(C(=O)Nc4ncccn4)nn3c2=O)C1=O [Example 217]
 | 94 | CCOC(=O)c1cc2n(CC(=O)Nc3ccc(F)cn3)c3c(c(=O)n2n1)CN(C1CCOCC1)C3=O [Example 122]
 | 10 | CCOC(=O)c1cc2n(CC(=O)Nc3ccc(F)cn3)c3c(c(=O)n2n1)CN(Cc1ccccn1)C3=O [Example 124]
 | 47 | CC(C)N1Cc2c(n(CC(=O)Nc3ccc(F)cn3)c3cc(C(=O)Nc4cccc(F)c4)nn3c2=O)C1=O [Example 206]
 | 585 | CCc1cc2n(CC(=O)Nc3ccc(F)cn3)c3c(c(=O)n2n1)CN(CC1CNC1)C3=O [Example 242]
 | 45 | O=C(Cn1c2c(c(=O)n3nc(C(=O)Nc4ccccc4F)cc13)CN(CCN1CCOCC1)C2=O)Nc1ccc(F)cn1 [Example 220]

From patent publication US11319324B2, “Pyrazolo-pyrrolo-pyrimidine-dione derivatives as P2X3 inhibitors” (Bayer Aktiengesellschaft, priority 2017, dated 2022)
